Laboratory results as given in PubChem BioAssay AID248 (DTP/NCI, 2004).
Values joined by “and” are separate entries in the source; they are usually repeats but may differ in a detail not shown here. Equal values may be shown once. Inconclusive results and toxic doses are left out. Rule as the data show it: active = T/C of 150% or more; inactive = T/C below 125%.

Test system: L1210 leukemia ip in BDF1 mice, survival T/C
Assay: NCI In Vivo Anticancer Drug Screen. Data for tumor model L1210 Leukemia (intraperitoneal) in B6D2F1 (BDF1) mice
Conditions: endpoint: mean survival time, higher = longer survival
In short: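 Each compound was tested against a transplantable tumor grown in mice. The endpoint was survival, with treated animals benchmarked against vehicle controls as a simple ratio.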

[1] = dose: 100.0 mg/kg/injection, schedule: Q04DX003 (ip), vehicle: saline with Tween-80
[2] = dose: 200.0 mg/kg/injection, schedule: Q04DX003 (ip), vehicle: saline with Tween-80
[3] = dose: 400.0 mg/kg/injection, schedule: Q04DX003 (ip), vehicle: saline with Tween-80
[4] = dose: 100.0 mg/kg/injection, schedule: Q01DX001 (ip), vehicle: saline with Tween-80
[5] = dose: 200.0 mg/kg/injection, schedule: Q01DX001 (ip), vehicle: saline with Tween-80
[6] = dose: 25.0 mg/kg/injection, schedule: Q01DX009 (ip), vehicle: Klucel (hydroxypropylcellulose) (HPC)
[7] = dose: 100.0 mg/kg/injection, schedule: Q01DX001 (ip), vehicle: saline
[8] = dose: 200.0 mg/kg/injection, schedule: Q01DX001 (ip), vehicle: saline
[9] = dose: 100.0 mg/kg/injection, schedule: Q01DX001 (ip), vehicle: carboxymethylcellulose (CMC)
[10] = dose: 200.0 mg/kg/injection, schedule: Q01DX001 (ip), vehicle: carboxymethylcellulose (CMC)
[11] = dose: 25.0 mg/kg/injection, schedule: Q04DX003 (ip), vehicle: saline
[12] = dose: 50.0 mg/kg/injection, schedule: Q04DX003 (ip), vehicle: saline
[13] = dose: 100.0 mg/kg/injection, schedule: Q04DX003 (ip), vehicle: saline
[14] = dose: 200.0 mg/kg/injection, schedule: Q04DX003 (ip), vehicle: saline

Measured: T/C

CCOC(=O)C1=Cc2ccccc2OC1
inactive: dose: 75.0 mg/kg/injection, schedule: Q01DX001 (ip), vehicle: saline 94 % of control | dose: 150.0 mg/kg/injection, schedule: Q01DX001 (ip), vehicle: saline 96 % of control | dose: 300.0 mg/kg/injection, schedule: Q01DX001 (ip), vehicle: saline 91 % of control

O=[N+]([O-])c1ccccc1CN1CCCCC1
inactive: dose: 5.0 mg/kg/injection, schedule: Q01DX001 (ip), vehicle: saline 102 % of control | dose: 10.0 mg/kg/injection, schedule: Q01DX001 (ip), vehicle: saline 102 % of control | dose: 20.0 mg/kg/injection, schedule: Q01DX001 (ip), vehicle: saline 102 % of control

COc1cc(/C=C(/C#N)C(=O)N2CCOCC2)cc(OC)c1OC
inactive: dose: 100.0 mg/kg/injection, schedule: Q01DX009 (ip), vehicle: saline with Tween-80 87 % of control | dose: 100.0 mg/kg/injection, schedule: Q04DX002 (ip), vehicle: saline with Tween-80 90 % of control | dose: 200.0 mg/kg/injection, schedule: Q01DX009 (ip), vehicle: saline with Tween-80 93 % of control | dose: 200.0 mg/kg/injection, schedule: Q04DX002 (ip), vehicle: saline with Tween-80 104 % of control | dose: 400.0 mg/kg/injection, schedule: Q01DX009 (ip), vehicle: saline with Tween-80 93 % of control | dose: 400.0 mg/kg/injection, schedule: Q04DX002 (ip), vehicle: saline with Tween-80 101 % of control

COP(=O)(OC)C(OC(=O)C(C)C)=C(C)C
inactive: [1] 112 % of control | [2] 110 % of control | [3] 102 % of control

CCCC(=O)c1cc(C)sc1C
inactive: dose: 100.0 mg/kg/injection, schedule: Q01DX009 (sc), vehicle: olive oil, sesame oil, peanut oil 90 % of control | dose: 100.0 mg/kg/injection, schedule: Q04DX003 (sc), vehicle: olive oil, sesame oil, peanut oil 100 % of control | dose: 200.0 mg/kg/injection, schedule: Q01DX009 (sc), vehicle: olive oil, sesame oil, peanut oil 87 % of control | dose: 200.0 mg/kg/injection, schedule: Q04DX003 (sc), vehicle: olive oil, sesame oil, peanut oil 93 % of control | dose: 400.0 mg/kg/injection, schedule: Q01DX009 (sc), vehicle: olive oil, sesame oil, peanut oil 99 % of control | dose: 400.0 mg/kg/injection, schedule: Q04DX003 (sc), vehicle: olive oil, sesame oil, peanut oil 100 % of control

CNS(=O)(=O)c1cccc(C(N)=S)c1
inactive: [4] 105 % of control | [5] 100 % of control | dose: 400.0 mg/kg/injection, schedule: Q01DX001 (ip), vehicle: saline with Tween-80 100 % of control

c1ccc([P+](C2=NNCC2)(c2ccccc2)c2ccccc2)cc1
inactive: dose: 6.25 mg/kg/injection, schedule: Q01DX009 (ip), vehicle: Klucel (hydroxypropylcellulose) (HPC) 105 % of control | dose: 12.5 mg/kg/injection, schedule: Q01DX009 (ip), vehicle: Klucel (hydroxypropylcellulose) (HPC) 118 % of control | [6] 105 % of control and 109 % of control

O=C1C(O)=C(c2ccccc2)C(=O)C(O)=C1c1ccccc1
inactive: dose: 25.0 mg/kg/injection, schedule: Q01DX001 (ip), vehicle: saline 95 % of control | [6] 100 % of control | dose: 50.0 mg/kg/injection, schedule: Q01DX001 (ip), vehicle: saline 104 % of control | dose: 50.0 mg/kg/injection, schedule: Q01DX009 (ip), vehicle: Klucel (hydroxypropylcellulose) (HPC) 105 % of control | dose: 50.0 mg/kg/injection, schedule: Q04DX002 (ip), vehicle: Klucel (hydroxypropylcellulose) (HPC) 98 % of control | [7] 96 % of control | dose: 100.0 mg/kg/injection, schedule: Q04DX002 (ip), vehicle: Klucel (hydroxypropylcellulose) (HPC) 120 % of control | [8] 104 % of control | dose: 200.0 mg/kg/injection, schedule: Q04DX002 (ip), vehicle: Klucel (hydroxypropylcellulose) (HPC) 91 % of control

S=c1[nH]c(=S)c2[nH]cnc(=S)c2[nH]1
inactive: dose: 2.0 mg/kg/injection, schedule: Q01DX Z (ip), vehicle: carboxymethylcellulose (CMC) 103 % of control | dose: 4.0 mg/kg/injection, schedule: Q01DX Z (ip), vehicle: carboxymethylcellulose (CMC) 91 % of control | dose: 8.0 mg/kg/injection, schedule: Q01DX Z (ip), vehicle: carboxymethylcellulose (CMC) 89 % of control | dose: 12.5 mg/kg/injection, schedule: Q01DX Z (ip), vehicle: carboxymethylcellulose (CMC) 91 % of control | dose: 25.0 mg/kg/injection, schedule: Q01DX Z (ip), vehicle: carboxymethylcellulose (CMC) 96 % of control

O=C(O)c1cccc2cccc(-c3c4ccc(=O)c(O)c-4oc4c(O)c(O)ccc34)c12
inactive: [1] 91 % of control | [2] 92 % of control | [3] 89 % of control

CC/C(=C(\CC)c1ccc(OCCN(CC)CC)cc1)c1ccc(OCCN(CC)CC)cc1
inactive: dose: 5.0 mg/kg/injection, schedule: Q01DX001 (ip), vehicle: carboxymethylcellulose (CMC) 94 % of control | dose: 10.0 mg/kg/injection, schedule: Q01DX001 (ip), vehicle: carboxymethylcellulose (CMC) 96 % of control | dose: 40.0 mg/kg/injection, schedule: Q01DX001 (ip), vehicle: carboxymethylcellulose (CMC) 94 % of control | [9] 106 % of control

Brc1csnn1
inactive: dose: 50.0 mg/kg/injection, schedule: Q01DX001 (ip), vehicle: carboxymethylcellulose (CMC) 98 % of control | [9] 110 % of control | [10] 95 % of control

O=C(O)CCc1ccsc1
inactive: [7] 94 % of control | [8] 100 % of control | dose: 400.0 mg/kg/injection, schedule: Q01DX001 (ip), vehicle: saline 102 % of control

CCCSC1=C(N2CC2)C(=O)C(SCCC)=C(N2CC2)C1=O
inactive: dose: 6.25 mg/kg/injection, schedule: Q04DX003 (ip), vehicle: saline 98 % of control | dose: 12.5 mg/kg/injection, schedule: Q04DX003 (ip), vehicle: saline 104 % of control | [11] 97 % of control | [12] 103 % of control | [13] 108 % of control | [14] 116 % of control

OCCSC1=NCCN1
inactive: [9] 97 % of control | [13] 109 % of control | [10] 100 % of control | [14] 103 % of control | dose: 400.0 mg/kg/injection, schedule: Q01DX001 (ip), vehicle: carboxymethylcellulose (CMC) 94 % of control

NS(=O)(=O)O.[Ni]
inactive: dose: 16.0 mg/kg/injection, schedule: Q04DX003 (ip), vehicle: saline 108 % of control | [11] 92 % of control | dose: 35.0 mg/kg/injection, schedule: Q04DX003 (ip), vehicle: saline 93 % of control | [12] 103 % of control

C#CCOCCC(=O)O
inactive: dose: 100.0 mg/kg/injection, schedule: Q04DX003 (ip), vehicle: acetone 106 % of control

CCCCOP(=O)(OCCCC)C(O)CCC (stereo not given)
inactive: [4] 93 % of control | [1] 104 % of control | [5] 93 % of control | [2] 98 % of control

CCCCC(C#N)(C(=O)OCC)C(C)(C)C (stereo not given)
inactive: dose: 100.0 mg/kg/injection, schedule: Q01DX009 (ip), vehicle: saline 105 % of control | [13] 96 % of control | dose: 200.0 mg/kg/injection, schedule: Q01DX009 (ip), vehicle: saline 92 % of control | [14] 97 % of control | dose: 400.0 mg/kg/injection, schedule: Q01DX009 (ip), vehicle: saline 101 % of control | dose: 400.0 mg/kg/injection, schedule: Q04DX003 (ip), vehicle: saline 96 % of control
